Consider one compound from patent US9719981B2, “RAC1 inhibitors for the treatment of alport glomerular disease” (Father Flanagan's Boys' Home, priority 2012, dated 2017).

Molecules are shown by their SMILES.

The subject of this experiment is FAK. As to the kind of experiment: pFAK397 western blot in cultured podocytes -/+ TAE226. In kind it is cell-based, mouse. The conditions noted are these: 20 μM TAE226, podocytes on placental laminin. The protocol:
Basal Lamina and −/+ TAE226 pFAK^397 Western Blots. 10 day differentiated GEC's were cultured in 0.5% FCS for 2 days and plated onto tissue culture dishes previously coated with 50 μg/ml Collagen Type 1 Rat Tail (BD Biosciences) and 2 μg/cm^2 Placental Laminin (Sigma) in 0.1% BSA containing media. For Basal Lamina experiment, additional dishes were coated with Collagen Type 1 and 1.25 μg/cm^2 EHS Laminin (BD Biosciences) or […] Merosin (Chemicon, Temecula Calif.). For −/+ TAE266 experiment, 20 μM TAE226 was included in the media. Protein was collected 15 hours later in M-PER (Thermo Scientific) as above and Western Blot run as described below.
Immunoblotting. Ten to fifteen micrograms, of cellular protein, was resolved in a 10% SDS-PAGE and then electrotransfered to PVDF membrane. The membranes were cut in half and the upper half (250 kDa to 75 kDa) used for pFAK/tFAK immunoblotting while the bottom half used for β-actin immunoblotting (loading control). Conditions for pFAK detection: the membrane was blocked in milk blocking solution (5% milk containing 0.2% Tween-20 in PBS) for 1 hour at room temperature with constant shaking and incubated overnight at 4° C. with anti-pFAK 1:1,000 in BSA blocking solution (1% BSA containing 0.2% Tween-20 in PBS). […]
(Immunoblotting shows a protein as a band on a membrane.)

Consider `CNC(=O)c1ccccc1Nc1nc(Nc2ccc(N3CCOCC3)cc2OC)ncc1Cl` [TAE226], for which the “Activation state of FAK (pFAK397) in cultured podocytes” value is given as “reduced”.
